# Ends that are not written are not given here.
# Columns and labels:
# human airway cells = experiment: Organelle distribution of PTD-5-avidin-β-gal, gradient ultracentrifugation and β-gal activity; type: cell-based; details: 37° C., purified organelles, FIG. 5
# Method: To test the distribution of PTD5 facilitating uptake into human airway cells, the ability of PTD5 to deliver β-gal protein to a variety of cell organelles was examined by separation of organelles using gradient ultra-centrifugation. PTD-5-avidin-β-gal and a control peptide, (Con.P)-avidin-β-gal, were added to the media bathing the airway cell cultures and incubated at 37° C. Three hours post-addition of the complexes, the cells were washed extensively and collected for organelle isolation by gradient ultracentrifugation. The purified cell organelles were tested for β-gal activity using a Galacto-light kit (Tropix, Inc.).
# mouse lungs = experiment: Intra-tracheal delivery of PTD5 streptavidin-Cy3 complexes into mouse lungs, two-photon microscopy; type: in vivo; details: 50 μl of 200 μM, three hours post-injection, FIG. 3
# Method: To determine if the PTDs can facilitate protein uptake by mouse lungs, the PTD5 streptavidin-Cy3 complexes were delivered into mouse lungs intra-tracheally. The treated mice were sacrificed three hours post-delivery and tissue from the lungs was scanned by two-photon microscopy. 50 μl of 200 μM solution of the PTD-5-β-Cy3 was injected intra-tracheally into mouse lungs. Three hours post-injection, the mice were sacrificed, and the lungs were analyzed by two photon confocal microscopy for internalization. A control peptide (Con.P)-Cy3 was used as a control.
# [1] = target: T1, interaction of Hdj2 and ΔF508 CFTR (Homo sapiens, UniProt P31689); experiment: Co-immunoprecipitation of Hdj2 with CFTR in KK cell lysate treated with fusion protein; type: binding
# T1 construct: endogenous in cells; host or cells: KK bronchial epithelial cell line (lysate)
# Method: To test whether PTD-5 ΔF508NBD1-RD could inhibit interaction of Hdj2 and ΔF508 CFTR, KK cells, a bronchial epithelial cell line carrying the ΔF508 mutation, were lysed with a lysis buffer, the lysate was treated with PTD5-NBD1-ΔF-RD and equal amount lysates were used to perform immunoprecipitation (IP) using CFTR antibodies, M3A7 (1 μg) and L12B4 (1 μg) and protein […] beads. The precipitants were washed five times with lysis buffer. Hjd2 that co-precipitated with CFTR was fractionated by SDS-PAGE, transferred to PVDF membrane and detected by immunoblotting (IB).
# ΔF508 CFTR = experiment: Whole cell patch clamp of forskolin-stimulated currents; details: primary human airway (HBE) cells, four hours treatment, 5-10 μM forskolin, 37° C.
# Method: To increase the specificity of the method, a whole cell patch clamp method can be utilized to verify the SPQ data using PTD-5 ΔF508 NBD1/RD. Briefly, cells at 50% confluence are treated with PTD fusion peptide or adenovirus carrying ΔF508 NBD1/RD for four hours and subjected to whole cell patch clamp by standard methods. Currents are recorded at −60 mV and current-voltage relations are obtained before and after the cells are stimulated with 5-10 μM forskolin; all procedures are performed at 37° C. The bath solution contained (in mM) 150 NaCl, 2 MgCl2, 1 EGTA, 5 HEPES and 0.5 CaCl2 (pH=7.3). The pipette solution contains (in mM) 150 NaCl, 2 MgCl2, 5 HEPES and 2 CaCl2 (pH=7.3). Data is amplified using an Axopatch 200A patch-clamp amplifier and recorded to disk by a Digidata A/D interface for later analysis with pCLAMP8. The data is low-pass filtered and digitized at 1 kHz.
# [2] = system: Calu3 cells and human bronchial epithelial cells (KK); experiment: PTD-5-facilitated delivery of streptavidin-Cy3, confocal microscopy; type: cell-based; details: three hours, 37° C., FIG. 2
# Method: (§1) To determine whether the PTD5 polypeptide (RRQRRTSKLMKR) was able to facilitate uptake into different cell types including differentiated airway epithelial cells and Calu3 cells, the ability of PTD5 to deliver avidin-β-Gal and streptavidin Cy3 to human airway cells and Calu3 cells was examined.
# PTD-5 was also coupled to streptavidin-Cy 3, which was added to Calu3 cell and human bronchial epthelial cells (KK) cultures at 37° C. (FIG. 2). A peptide (Con.P)-strepavdin-Cy3 was used as a control. Three hours post addition of the PTD-5-streptavidin-Cy 3, the intracellular localization of the red (Cy 3) fluorescent signals were visualized by confocal microscopy. The nuclei were counterstained using cytox green.
# [3] = system: primary human airway epithelial cells (HBE144), polarized canine kidney cells (MDCK) and other cell types; experiment: PTD-5-facilitated delivery of avidin-β-gal complex, X-gal staining; type: cell-based; details: 150 nM PTD-5-avidin-β-gal complex, three hours, FIG. 1
# Method: as §1
# PTD-5 is a positively charged transduction peptide, which was biotinylated so that it can be coupled to avidin marker complexes. 150 nM of the PTD-5-avidin-β-gal complex was added to the cell culture media of various cell lines (FIG. 1). Three hours post addition of the complex, the indicated cells were fixed and stained with X-gal.
Substance,delivery of avidin-β-gal complex to cell organelles (β-gal activity) (human airway cells),Cy3 signal in lungs (mouse lungs),interaction of Hdj2 with ΔF508 CFTR (co-immunoprecipitation) ([1]; listed as PTD5 ΔF508NBD1-RD fusion protein),interaction of Hdj2 with ΔF508 CFTR (co-immunoprecipitation) ([1]; listed as PTD-5-ΔF508 NBD1-RD),forskolin-stimulated whole cell currents (ΔF508 CFTR),delivery of streptavidin-Cy3 complex into cells (confocal microscopy) [2],delivery of avidin-β-gal complex into cells (X-gal staining) [3]
"ARPLEHGSDKAT (control, Con P) [reference compound]",did not localize to any of the organelles,weak signals,–,–,–,–,–
"PTD5-ΔF508 NBD1/RD fusion protein: inline fusion of PTD-5 with the ΔF508 CFTR NBD1-RD region, histidine tag, expressed in E. coli, nickel column purified",–,–,capable of inhibiting the interaction of Hdj2 with the ΔF508 CFTR protein,disrupts ΔF508 CFTR interaction with chaperone Hdj2,forskolin-stimulated currents typical of those associated with CFTR,–,–
"RRQRRTSKLMKR (also: biotinylated (position not given here)) [PTD-5, biotinylated for coupling to avidin marker complexes]","able to deliver the avidin-β-gal complex to ER, Golgi, mitochondria, and nuclei",significant Cy3 signal,–,–,–,delivered the streptavidin-Cy3 complex,able to deliver the avidin-β-gal complex

# Reference: patent US7264948B2, “Polypeptides for increasing mutant CFTR channel activity” (University of Pittsburgh, priority 2002, dated 2007)
